Test results as given in US9428815B2, “HIV-1 reverse transcriptase codon deletion and its use in the management and treatment of HIV infections” (Emory University, priority 2007, dated 2016).

Experiments:
[1] = biological target: RT derived from M184V particles (Human immunodeficiency virus type 1 group M subtype B, UniProt P03367, M783V); settings: particle-derived RT, 3.2 mM ATP, FIG. 5
Source text: The principle and performance of the non-radioactive RT assay has been described (Lennerstrand et al., Antimicrob. Agents Chemother. 2007; 51:2078-2084). Separate kit components, such as covalently-linked DNA microtiter plates and tracer solution (alkaline phosphate (AP)-conjugated anti-BrdU antibody) were obtained from Cavidi Tech, Uppsala, Sweden. In brief, the 96-well microtiter plate used consisted of an 18 base heteropolymeric DNA primer covalently bound to the well. In the RT assay, the DNA primer is bound to a 50-base DNA template at 50 ng/well (190 nM) with a 5′-A12-3′ tail with a 5′-(GTCA)5-3′ repeat (Integrated DNA Technologies, USA). The RT assay reaction mixture (total volume 150 μl/well) contained: Hepes 50 mM, pH 7.3; MgCl2 10 mM; Triton X-100 0.5%; bovine serum albumin 0.1 mg/ml; dATP, dGTP, dCTP and 5-bromo-2′-deoxyuridine-5′-triphosphate (BrdUTP) at 1.0 μM each (where BrdUTP replaces TTP) (Sigma). To obtain ATP primer unblocking reaction in the assay, the ATP (Amersham/GE Health Care) was set to physiological concentration (3.2 mM). However, the ATP was only used in the assay with virus pellets as sample, not merely for primer unblocking reaction but to protect degradation of substrate in the crude sample. Furthermore, the dNTP level including BrdUTP was increased from 1 μM to 4 μM for the assay with the virus pellet samples. […]

[2] = biological target: T1, RT from virally-derived S68del (Human immunodeficiency virus type 1 group M subtype B, UniProt P03367, DEL667-667); assay: Heteropolymeric-DNA colorimetric RT assay with 3.2 mM ATP, particle-derived S68del RT; format: biochemical, HIV-1; settings: for fold increase in resistance: virally-derived S68del RT, relative to HIVLAI, enzymatic assay
T1 construct: The resistance of RT derived from S68del and M184V particles; made in house; host or cells: crude virus pellet; the virus was passaged in human PBM cells
Source text: (§1) The principle and performance of the non-radioactive RT assay has been described (Lennerstrand et al., Antimicrob. Agents Chemother. 2007; 51:2078-2084). Separate kit components, such as covalently-linked DNA microtiter plates and tracer solution (alkaline phosphate (AP)-conjugated anti-BrdU antibody) were obtained from Cavidi Tech, Uppsala, Sweden. In brief, the 96-well microtiter plate used consisted of an 18 base heteropolymeric DNA primer covalently bound to the well. In the RT assay, the DNA primer is bound to a 50-base DNA template at 50 ng/well (190 nM) with a 5′-A12-3′ tail with a 5′-(GTCA)5-3′ repeat (Integrated DNA Technologies, USA). The RT assay reaction mixture (total volume 150 μl/well) contained: Hepes 50 mM, pH 7.3; MgCl2 10 mM; Triton X-100 0.5%; bovine serum albumin 0.1 mg/ml; dATP, dGTP, dCTP and 5-bromo-2′-deoxyuridine-5′-triphosphate (BrdUTP) at 1.0 μM each (where BrdUTP replaces TTP) (Sigma). To obtain ATP primer unblocking reaction in the assay, the ATP (Amersham/GE Health Care) was set to physiological concentration (3.2 mM). However, the ATP was only used in the assay with virus pellets as sample, not merely for primer unblocking reaction but to protect degradation of substrate in the crude sample. Furthermore, the dNTP level including BrdUTP was increased from 1 μM to 4 μM for the assay with the virus pellet samples. Subsequently, in the assay with recombinant purified RT enzyme, no ATP besides 1 μM dNTP was used.
(§2) The reaction was started with the addition of RT either as recombinant or crude virus pellet form in a similar activity range as previous published (Lennerstrand et al., Antimicrob. Agents Chemother. 2007; 51:2078-2084). The RT reaction mixture was incubated at 33° C. for 180 min and terminated by NaOH (to dehybridize the template) and water washing of the plates.

[3] = test system: HIVs68Δ-23 (S68del virus isolated at week 23); assay: 3H-TTP RT incorporation assay, drug susceptibility of in vitro-selected S68del virus in human PBM cells; format: cell-based, HIV-1; settings: for EC50 / EC90: HIVs68Δ-23 in human PBM cells, averages of 2-6 independent experiments; for resistance of S68del (in words): S68del mutant HIV, summary statement
Description: Peripheral blood mononuclear (PBM) cells were separated by ficoll-hypaque (Histopaque 1077: Sigma) density gradient centrifugation from Buffy coats obtained from the American Red Cross (Atlanta, Ga.). Buffy coats were derived from healthy seronegative donors. Cells were activated with 3 μg/ml phytohaemagglutinin A (Sigma-Aldrich, St. Louis, Mo.) in 500 ml of RPMI-1640 (Mediatech Inc., Herndon, Va.) containing 100 ml heat-inactivated fetal bovine serum (Hyclone), 83.3 IU/ml penicillin, 83.3 μg/ml streptomycin, 1.6 mM L-glutamine (Mediatech Inc., Herndon, Va.), for 2-3 days prior to use.
Drug resistance of the S68del virus isolated at week 23 (HIVs68Δ-23) was measured with the 3H-TTP RT incorporation assay in human PBM cells (Schinazi, et al., Antimicrob. Agents Chemother. 1990; 34:1061-1067; Stuyver et al., Antimicrob. Agents Chemother. 2002; 46:3854-60). HIVs68Δ-23 was population sequenced to ensure the dominant population was the deletion at codon 68. […] The susceptibility of the S68del virus to several nucleoside reverse transcriptase inhibitors (NRTI), a non-nucleoside reverse transcriptase inhibitor (NNRTI) and a protease inhibitor (PI) was tested. Fold increases were measured relative to HIVLAI (Table 4, FIGS. 2 and 3). Data are the averages of 2-6 independent experiments.

[4] = biological target: T2, Wild type Reverse Transcriptase (Human immunodeficiency virus type 1 group M subtype B, UniProt P12497); assay: Heteropolymeric DNA polymerase RT assay in the absence of ATP, wild type RT; format: biochemical, HIV-1; settings: for IC50: Wild type RT; for Fold-incr: Wild type RT (reference)
T2 construct: The level of resistance to NRTI-TP by the S68del mutants compared to wild type RT
Description: The level of resistance to NRTI-TP by the S68del mutants compared to wild type RT was determined as IC50 values of RT activity in the absence of ATP (Table 6). […] The RT activity was linear during the assay time within the substrate range used, and thus steady state kinetics were assumed.

[5] = test system: Recombinant S68del Reverse Transcriptase; assay: Heteropolymeric DNA polymerase RT assay in the absence of ATP, recombinant S68del RT; format: biochemical, HIV-1; settings: Recombinant S68del RT IC50 divided by wild type IC50
Description: (§3) Nucleic acids were separated by gel electrophoresis in a TAE gel and extracted from bands using the Qiagen gel extraction kit. The 4.2 kb band from pNL4-3 containing the HIV-RT encoding sequences was ligated into the linearized pCR2.1, making the construct MC002. Site directed mutagenesis was performed on the MC002 plasmid. Primers used had the S68 codon AGT deleted, thus introducing the S68 deletion into the pNL4-3 RT background.
(§4) To ligate the RT of pNL4-3 comprising the deletion at S68 codon 68 into protein expression vector […] (Invitrogen), MC002 was amplified using forward primer 5′-[…]-3′ (SEQ ID NO: 10) and reverse primer 5′-[…] […]-3′ (SEQ ID NO: 11). The PCR product and pQE60 were digested with Bgl II and Nco I. The digested products were separated by gel electrophoresis nucleic acids in excised gel bands extracted using the Qiagen gel extraction kit. The amplified PCR product comprising the RT of pNL4-3 was ligated into the linearized pQE60. The ligation mix was transformed into chemically competent bacteria (Alpha-select). Plasmid DNA from selected transformants was extracted using a mini-prep kit (Qiagen). Plasmid DNA was sequenced in both directions to confirm the ligation.
as §1, §2

[6] = biological target: T3, Recombinant S68del Reverse Transcriptase (Human immunodeficiency virus type 1 group M subtype B, UniProt P12497, DEL655-655); assay: as above; format: biochemical, HIV-1
T3 construct: The amplified PCR product comprising the RT of pNL4-3 was ligated into the linearized pQE60; inferred from the pQE60 vector and the in-frame BglII site of the reverse primer without a stop codon) (C); made in house; host or cells: bacteria
Description: as §3, §4, §1, §2

pNL4-3 = assay: Quantitative HIV-1 real-time PCR assay in human PBM cells, pNL4-3 virus; format: cell-based; settings: Human immunodeficiency virus 1, PBMC, pNL4-3 in human PBM cells
Source text: The real-time PCR assay for quantifying virus levels in PBM cells serves as a more sensitive method for measuring drug resistance of S68del HIV-1 than other standard methods. SK38 Primer: ATAATCCACCTATCCCAGTAGGAGAAAT (SEQ ID NO: 1) and SK39 Primer: TTTGGTCCTTGTCTTATGTCCAGAATGC (SEQ ID NO: 2) were used in the real-time PCR assay. The presence of amplified product was detected with the SK19 probe: ATCCTGGGATTAAATAAAATAGTAAGAATGTATAG (SEQ ID NO: 3). […] Four concentrations were tested in duplicate for each data point.

[7] = Human immunodeficiency virus 1, PBMC

Nc1nc(=O)n([C@@H]2CS[C@H](CO)O2)cc1F (relative stereo) [(−)-FTC, cis-2-hydroxymethyl-5-(5-fluorocytosin-1-yl)-1,3-oxathiolane]
resistance of M184V RT (in words) [1]: increased resistance
resistance of S68del RT (in words) ([2]; particle-derived RT, 3.2 mM ATP, FIG. 5): increased resistance
EC50 [3, 7]: 0.3 µM
EC90 [3, 7]: 1.1 µM

Nc1nc(=O)n(C2CSC(COP(=O)(O)OP(=O)(O)OP(=O)(O)O)O2)cc1F (single isomer, unassigned; (-)) [(−)FTC-TP]
IC50 [4]: 3.5 ± 0.3 µM
Fold-incr [4]: 1.0
Fold-incr [5]: 7.7
IC50 [6]: 27 ± 2 µM
fold increase in resistance [2]: 10 fold

Nc1nc2c(ncn2C2COC(CO)O2)c(=O)[nH]1 (single isomer, unassigned; (-)) [DXG, (−)-9-(beta-D-dioxolane)guanine]
EC50 [3]: 1.6 µM
EC90 [3]: 5.1 µM
FI EC50 (fold increase in 50% effective concentration) ([3]; HIVs68Δ-23 relative to HIVLAI): 6.2
FI EC90 (fold increase in 90% effective concentration) ([3]; HIVs68Δ-23 relative to HIVLAI): 3.7

Nc1ccn([C@@H]2CS[C@H](CO)O2)c(=O)n1 [3TC, (−)-cis-2-hydroxymethyl-5-(cytosin-1-yl)-1,3-oxathiolane]
EC50 [3, 7]: 0.88 µM
EC90 [3, 7]: 3.3 µM

Cc1cn([C@H]2C[C@H](N=[N+]=[N-])[C@@H](CO)O2)c(=O)[nH]c1=O [AZT, 3′-azido-3′-deoxythymidine]
EC50 (pNL4-3): 0.13 µM
EC90 (pNL4-3): 0.33 µM
EC50 [3, 7]: 0.0038 µM
EC90 [3, 7]: 0.014 µM
resistance of S68del (in words) [3]: does not show increased resistance

Cc1cn(C2CC(N=[N+]=[N-])C(COP(=O)(O)OP(=O)(O)OP(=O)(O)O)O2)c(=O)[nH]c1=O (stereo not drawn) [AZT-TP]
IC50 [4]: 0.27 ± 0.02 µM
Fold-incr [4]: 1.0
Fold-incr [5]: 2.6
IC50 [6]: 0.7 ± 0.1 µM
fold increase in resistance [2]: 2.5 fold

Nc1nc(NC2CC2)c2ncn([C@H]3C=C[C@@H](CO)C3)c2n1.O=C(O)CCC(=O)O [Abacavir, (1S,4R)-4-[2-amino-6-(cyclopropyl-amino)-9H-purin-9-yl]-2-cyclopentene-1-methanol succinate]
EC50 [3, 7]: 3.9 µM
EC90 [3, 7]: 11.3 µM

Cc1cn([C@H]2C=C[C@@H](CO)O2)c(=O)[nH]c1=O [D4T, 2′,3′-dideoxy-2′,3′-didehydrothymidine]
EC50 [3, 7]: 0.41 µM
EC90 [3, 7]: 1.5 µM
resistance of S68del (in words) [3]: does not show increased resistance
